Test results taken from patent US20160243136A1, “PHARMACEUTICAL FORMULATIONS CONTAINING MITOCHONDRIALLY TARGETED ANTIOXIDANTS” (Mitotech SA, priority 2013, published 2016).

Key:
Human neutrophils = assay: f-MLP-stimulated neutrophil MMP-9 release by zymography; type: cell-based; conditions: 0.2 nM, 2 nM, and 200 nM; 1.5 hr pre-incubation; 1 nM f-MLP 30 min; vs vehicle control
Protocol: Human neutrophils were isolated from anticoagulated blood of healthy donors. Neutrophils were pre-incubated with 0.2 nM, 2 nM, 20 nM, 200 nM, and 500 nM SkQ1 solution in RPMI-1640 medium supplemented with 10% fetal serum for 1.5 hr at 37° C. in 5% CO2. The cells were then stimulated with 1 nM N-formyl-methionine-leucine-phenylalanine (f-MLP) for 30 min. The supernatants from the cells were used to detect MMP-9 activity by zymography analysis (MMP-9 release was used to estimate tissue damage). The data from this assay was shown as means at least for 3 separate experiments.

[1] = system: Wistar rats with experimental hepatitis; assay: D-galactosamin-induced experimental hepatitis; type: in vivo, rat; conditions: 7 d before induction, control median 2
Protocol: Experimental hepatitis was induced in 8-10 weeks old Wistar rats weighing […] by intraperitoneal injection of 500 mg/kg D-galactosamin in 0.9% NaCl. SkQ1 was administered by gavage in aqueous solution at doses of 10 nmol/kg/day, 50 nmol/kg/day, 250 nmol/kg/day, and 1250 nmol/kg/day starting 7 d before induction of hepatitis and ending at the day of induction. The animals were sacrificed 24 hrs after the induction of hepatitis. Inflammation score was estimated for each animal on a 3-point scale by blind examination of hematoxylin-eosin stained liver sections.

[2] = system: Wistar rats with acute pancreatitis; assay: Arginine-induced acute pancreatitis model; type: in vivo, rat; conditions: for MPO activity in pancreatic tissue homogenates: control 52.9, intact 6.1
Protocol: (§1) Kidney homogenates for MPO determination were centrifuged at 20000 g 15 min, the pellets were resuspended in 50 mM K-phosphate buffer containing 0.5% CTAB. Resulted samples were frozen and thawed three times and then centrifuged at 10600 g 10 min. Supernatants were analyzed for MPO activity in chromogenic reaction with o-phenylenediamine (OPD). 100 μl sample was mixed with 100 μl substrate buffer (25 mM Na-citrate, 50 mM Na-phosphate, 0.45 mg/ml OPD, 0.1% H2O2, pH 5.0) and was incubated 15 min at room temperature and then OD was detected at 492 nm.
42 Wistar rats (age: 20-25 week, weight 400 g-750 g) were distributed among 4 experiemntal groups with the same average weight. SkQ1 was administered with drinking water with an estimated dosage of 250 nmoles/kg/day or 50 nmoles/kg/day. Acute pancreatitis was induced by a single intraperitoneal (ip) injection of arginine (100 mg/100 g of animal weight; 20% arginine solution in about 2.5 ml phosphate buffer).
The experimental groups were: (1) Intact (n=10); (2) Control (n=10) treated with arginine ip injection; (3) SkQ250-SkQ1 pretreatment with 250 nmoles/kg/day dosage for 9 days; IP injection of arginine on day 9, continuation of SkQ1 treatment for 24 hr (n=10); and (4) SkQ50-SkQ1 pretreatment with 50 nmoles/kg/day dosage for 9 days. IP injection of arginine on day 9, continuation of SkQ1 treatment for 24 hr (n=10).
The activity of pancreatic myeloperoxidase (MPO) was also measured as described in Example 1 (for kidney tissue).
Samples of pancreas were fixed in 10% formalin and then prepared for eosin-hematoxylin staining of 5 μm-6 μm slices using standard techniques. Stained samples (slices) were examined under light microscopy.
The intensity of inflammation in the samples was measured by a standard ascending scale score from 0 to 3. The average score of inflammation in rats without SkQ treatment was 1.5.

rat model of APN = assay: In vivo rat model of acute pyelonephritis (APN), bacteria introduced in the bladder; conditions: 7th day
Protocol: An in vivo experimental model of APN was used where bacteria are introduced in the bladder of rat (Gupta et al. (1995) J. Med. Microbiol. 43:33-36). Experiments were performed on outbred white female rats (180-200 g) fed ad libitum. Animal protocols were approved by the Institutional Review Boards. Rats were anesthetized with chloral hydrate (300 mg/kg, intraperitoneally(ip)). The animals were infected intraurethrally using a soft Intramedic non-radio-opaque polyethylene catheter (Clay Adams, USA). The inoculum (5 ml per kg, 1×10^8 CFU/ml of rat fecal bacterial composition) was injected slowly to avoid any leakage […]. Control animals were untreated. The therapeutic protocol of SkQR1 used to treat this pathology was as follows: […], with subsequent injections of the same amount of SkQR1 at 12, 24, 36 and 48 hrs; in total, each animal received 500 nmol SkQR1 per kg. […]
Kidney mitochondria were isolated by homogenization and differential centrifugation in a medium containing 250 mM sucrose, 20 mM HEPES-KOH, 1 mM EGTA and 0.1% BSA, pH7.4. Total mitochondrial protein was determined using a bicinchoninic acid protein assay kit (Sigma-Aldrich, USA). The mitochondria from cultured kidney cells were isolated by the same protocol.
The ROS-sensitive fluorescent probe 2,7-DCF-DA (Molecular Probes, USA) dissolved in DMEM/F12 without bicarbonate (final concentration 10 μM) was added to renal cells (500 μl per well of 24-well plate, 2 ml per dish) and incubated for 15 min at 37° C. followed by a wash with DMEM/F12 without bicarbonate. MDA was determined as in (Mihara and Uchiyama (1978) Anal. Biochem. 86:271-8). Fluorescent probe, DAF-2-DA (Calbiochem, San Diego, Calif., USA) was used for NO determination in living cells. The procedure was the same as for 2,7-DCF-DA. The nitrite/nitrate concentration (as products of NO oxidation) in culture media was determined using Nitrite/Nitrate Assay Kit (Sigma-Aldrich, USA). TNFα was determined using the kit Rat TNFα ELISA Ready-SET-Go (Ebioscience, USA).
The kidney was isolated immediately after sacrificing the animal and perfused with ice-cold PBS. It was then fixed in a 10% neutral buffered formalin solution, embedded in paraffin and used for histopathological examination. Five micrometer thick sections were cut, deparaffinized, hydrated, and stained with hematoxylin and eosin. The renal sections were examined in blinded fashion for inflammation and infiltration by leukocytes in the kidneys of all treated animals. A minimum of 10 fields for each kidney slide were examined and scored for pathologic severity.
The manifestation of inflammatory indicators (i.e., a number of infiltrated leukocytes in every layer and the presence of abscesses) under APN was evaluated using the following scale: 0, none; 1, 5-50 leukocytes in the view field; […]; 4, abscesses with pus-necrotic content. The distribution of inflammatory changes (i.e., comparative analysis of infiltration and abscesses) was evaluated by the following criteria: 0, none in any layer; 1, infiltration in the medullar layer; 2, infiltration reaching the cortex.
as §1
Samples of kidney homogenates were loaded onto 15% Tris-glycine polyacrylamide gels (10-20 μg of total protein per lane). After electrophoresis, gels were blotted onto PVDF membranes (Amersham Pharmacia Biotech, UK). […]

## CC1=C(C)C(=O)C(CCCCCCCCCC[P+](c2ccccc2)(c2ccccc2)c2ccccc2)=CC1=O [SkQ1, 10-(6-plastoquinonyl)decyl-triphenylphosphonium]
Human neutrophils
  neutrophil-MMP-9 activation induced by f-MLP: prevented
[1]; 50 nmol/kg/day by gavage, p<0.01
  inflammation score (3-point scale, liver sections): 1.5
[1]; 1250 nmol/kg/day by gavage, p<0.001
  inflammation score (median, 3-point scale, liver sections): 1
[2]; SkQ50: 50 nmoles/kg/day for 9 days + 24 hr
  MPO activity in pancreatic tissue homogenates: 50.0
[2]; SkQ50: 50 nmoles/kg/day, untreated pancreatitis 1.5
  Average inflammation score (pancreas histology, scale 0 to 3): 1.5
[2]; SkQ250: 250 nmoles/kg/day for 9 days + 24 hr
  MPO activity in pancreatic tissue homogenates: 15.8
[2]; both dosages (250 and 50 nmoles/kg/day in drinking water)
  weight of the pancreas (edema): prevented an increase
Rat model of APN; SkQ1 100 nmol/kg ip on 3rd day
  leukocyte concentration in blood: significantly reduced
Rat model of APN; SkQ1 100 nmol/kg ip on 3rd day after induction, vs animals not receiving SkQ1
  neutrophils concentration in blood: twice as low
Rat model of APN; SkQ1 ip on third day after induction
  MPO activity in renal tissue (inflammation of kidney tissue): significant suppression
